Measurements from patent US9248117B2, “Substituted N,N-dihaloamines as antimicrobials” (priority 2010, dated 2016).
≈ marks a conversion by molar mass, not a printed value.

Key:
E. coli 25922 = assay: MBC/MFC against E. coli 25922; type: cell-based; details: Escherichia coli, Table 3
S. aureus 29213 = assay: MBC/MFC against S. aureus 29213; type: cell-based; details: Staphylococcus aureus, Table 3
C. albicans 10231 = assay: MBC/MFC against C. albicans 10231; type: cell-based; details: Candida albicans, Table 3
L929 cells = assay: CT50 cytotoxicity in L929 cells; details: pH 7 phosphate; Table 3

Compound | MBC (E. coli 25922; pH 4 acetate) | MBC (E. coli 25922; pH 7 phosphate) | MBC (S. aureus 29213; pH 4 acetate) | MBC (S. aureus 29213; pH 7 phosphate) | MFC (C. albicans 10231; pH 4 acetate) | MFC (C. albicans 10231; pH 7 phosphate) | CT50 L929 cells (L929 cells)
COCCOCCOCCS(=O)(=O)CC(C)(C)N(Cl)Cl [Compound 38-01, dichloro[1-({2-[2-(2-methoxyethoxy)ethoxy]ethane}sulfonyl)-2-methylpropan-2-yl]amine] | 2 µg/mL (≈ 5.68 µM) | 256 µg/mL (≈ 727 µM) | 2 µg/mL (≈ 5.68 µM) | 256 µg/mL (≈ 727 µM) | 32 µg/mL (≈ 90.8 µM) | > 512 µg/mL | 0.06 mM
CC(C)(CCS(=O)(=O)CCO)N(Cl)Cl [Compound 38-25, 2-(3-(Dichloroamino)-3-methylbutylsulfonyl)ethanol] | 0.5 µg/mL (≈ 1.89 µM) | 8 µg/mL (≈ 30.3 µM) | 1 µg/mL (≈ 3.79 µM) | 16 µg/mL (≈ 60.6 µM) | 16 µg/mL (≈ 60.6 µM) | 512 µg/mL (≈ 1940 µM) | –
CC(C)(CCS(=O)(=O)CC(O)CO)N(Cl)Cl (stereo not drawn) [Compound 38-27, 3-(3-(Dichloroamino)-3-methylbutylsulfonyl)propane-1,2-diol] | 2 µg/mL (≈ 6.8 µM) | 16 µg/mL (≈ 54.4 µM) | 2 µg/mL (≈ 6.8 µM) | 4 µg/mL (≈ 13.6 µM) | > 256 µg/mL | > 1020 µg/mL | 0.13 mM
CC(C)(CCS(=O)(=O)CC(O)C(O)CO)N(Cl)Cl (stereo not drawn) [Compound 38-29, 4-(3-(Dichloroamino)-3-methylbutylsulfonyl)butane-1,2,3-triol] | 2 µg/mL (≈ 6.17 µM) | 128 µg/mL (≈ 395 µM) | 1 µg/mL (≈ 3.08 µM) | 32 µg/mL (≈ 98.7 µM) | 256 µg/mL (≈ 790 µM) | > 1020 µg/mL | –
COCC[N+](C)(C)CCC(C)(C)N(Cl)Cl.[Cl-] [Compound 38-43, 3-(dichloroamino)-N-(2-methoxyethyl)-N,N,3-trimethylbutan-1-aminium chloride] | 2 µg/mL | 1020 µg/mL | 1 µg/mL | 512 µg/mL | 32 µg/mL | > 2050 µg/mL | 1.2 mM
CC(=O)OCC(O)CS(=O)(=O)CCC(C)(C)N(Cl)Cl (stereo not drawn) [Compound 38-49, 3-(3-(Dichloroamino)-3-methylbutylsulfonyl)-2-hydroxypropyl acetate] | 2 µg/mL | 64 µg/mL | 4 µg/mL | 32 µg/mL | 16 µg/mL | > 512 µg/mL | –
CC(=O)OCC(CS(=O)(=O)CCC(C)(C)N(Cl)Cl)OC(C)=O (stereo not drawn) [Compound 38-51, 3-(3-(Dichloroamino)-3-methylbutylsulfonyl)propane-1,2-diyl diacetate] | 1 µg/mL | 128 µg/mL | 2 µg/mL | 128 µg/mL | 16 µg/mL | 128 µg/mL | –
CC(=O)OCCOCCOCCS(=O)(=O)CCC(C)(C)N(Cl)Cl [Compound 38-87, 2-(2-(2-(3-(Dichloroamino)-3-methylbutylsulfonyl)ethoxy)ethoxy)ethyl acetate] | 4 µg/mL | 128 µg/mL | 4 µg/mL | 128 µg/mL | 32 µg/mL | 512 µg/mL | –
CC(C)(C)OCCOCCOCCS(=O)(=O)CCC(C)(C)N(Cl)Cl [Compound 38-91, N,N-dichloro-4-(2-(2-(2-tert-butoxyethoxy)ethoxy)ethylsulfonyl)-2-methylbutan-2-amine] | 8 µg/mL (≈ 19.6 µM) | > 256 µg/mL | 4 µg/mL (≈ 9.79 µM) | 128 µg/mL (≈ 313 µM) | 16 µg/mL (≈ 39.2 µM) | 128 µg/mL (≈ 313 µM) | –
CO[C@H]1O[C@H](CS(=O)(=O)CCC(C)(C)N(Cl)Cl)[C@@H](O)[C@H](O)[C@H]1O [Compound 38-141, (2S,3S,4S,5R,6S)-2-(((3-(dichloroamino)-3-methylbutyl)sulfonyl)methyl)-6-methoxytetrahydro-2H-pyran-3,4,5-triol] | 8 µg/mL (≈ 20.2 µM) | 512 µg/mL (≈ 1290 µM) | 8 µg/mL (≈ 20.2 µM) | 256 µg/mL (≈ 646 µM) | 16 µg/mL (≈ 40.4 µM) | > 1020 µg/mL | –
CC(C)(CCS(=O)(=O)C(CO)C(O)CO)N(Cl)Cl (stereo not drawn) [Compound 38-145, 3-(3-(Dichloroamino)-3-methylbutylsulfonyl)butane-1,2,4-triol] | 2 µg/mL (≈ 6.17 µM) | 64 µg/mL (≈ 197 µM) | 2 µg/mL (≈ 6.17 µM) | 16 µg/mL (≈ 49.3 µM) | 64 µg/mL (≈ 197 µM) | 1020 µg/mL (≈ 3160 µM) | –
